Data reported in patent US11369577B2, “Reprogramming-based models of neurodevelopmental disorders and uses thereof” (IEO—Istituto Europeo di Oncologia S.r.l., priority 2014, dated 2022).
Structures can show the parent of a compound that is named as a salt.

Target: T1, LSD1 (Homo sapiens, UniProt O60341)
T1 construct: endogenous in cells; host or cells: Embryoid bodies formed from control human iPSC line CTR1R-C3
Assay: Embryoid body formation assay with LSD1 inhibitor treatment, RT-qPCR of GTF2I target genes
Format: cell-based
Details: control iPSC line, treatment for 5 days at day 0 and day 4, final concentration 5 uM (Oryzon), 10 uM (DDP26095)
Experimental: Retrotranscribed cDNAs have been obtained from 1 μg of total DNA-depleted RNA using the superscript VILO retrotranscription kit from Life Technologies according to manufacturer instructions.
For real time q-PCR analysis a total amount of cDNA corresponding to 10-50 ng of starting RNA has been used for each reaction. FAST SYBR green master mix from Life Technologies and 10 μM primers pair have been used.
10 uM RA has been added at day 0 or at day 4. At day 1 EBs have been plated on a low attachment dish and media was replaced with KO-DMEM (+P/S+Glut)(EB media) 20% FBS containing. […] Next, RNA extraction and cDNA preparation has been performed as described above.

| SMILES | BEND4 mRNA level (RT-qPCR, percentage of GAPDH) upon irreversible LSD1 inhibition |
| --- | --- |
| N[C@@H]1C[C@H]1c1ccc(NC(=O)c2cccc(N3CCOC3=O)c2)cc1 (relative stereo) [DDP26095, N-[4-[trans-2-aminocyclopropyl]phenyl]-3-(2-oxooxazolidin-3-yl)benzamide hydrochloride] | increased |
| Cl.N[C@H]1CC[C@H](N[C@@H]2C[C@H]2c2ccccc2)CC1 [Oryzon, (trans)-N1-((1R,2S)-2-phenylcyclopropyl)cyclohexane-1,4-diamine hydrochloride] | increased |
